From paper PMC10040380 (Cell Reports Medicine, 2023)

Molecular target: T1, KCC2 (Homo sapiens, UniProt Q9H2X9)
T1 sequence (Q9H2X9 1-1116 isoform Q9H2X9-2): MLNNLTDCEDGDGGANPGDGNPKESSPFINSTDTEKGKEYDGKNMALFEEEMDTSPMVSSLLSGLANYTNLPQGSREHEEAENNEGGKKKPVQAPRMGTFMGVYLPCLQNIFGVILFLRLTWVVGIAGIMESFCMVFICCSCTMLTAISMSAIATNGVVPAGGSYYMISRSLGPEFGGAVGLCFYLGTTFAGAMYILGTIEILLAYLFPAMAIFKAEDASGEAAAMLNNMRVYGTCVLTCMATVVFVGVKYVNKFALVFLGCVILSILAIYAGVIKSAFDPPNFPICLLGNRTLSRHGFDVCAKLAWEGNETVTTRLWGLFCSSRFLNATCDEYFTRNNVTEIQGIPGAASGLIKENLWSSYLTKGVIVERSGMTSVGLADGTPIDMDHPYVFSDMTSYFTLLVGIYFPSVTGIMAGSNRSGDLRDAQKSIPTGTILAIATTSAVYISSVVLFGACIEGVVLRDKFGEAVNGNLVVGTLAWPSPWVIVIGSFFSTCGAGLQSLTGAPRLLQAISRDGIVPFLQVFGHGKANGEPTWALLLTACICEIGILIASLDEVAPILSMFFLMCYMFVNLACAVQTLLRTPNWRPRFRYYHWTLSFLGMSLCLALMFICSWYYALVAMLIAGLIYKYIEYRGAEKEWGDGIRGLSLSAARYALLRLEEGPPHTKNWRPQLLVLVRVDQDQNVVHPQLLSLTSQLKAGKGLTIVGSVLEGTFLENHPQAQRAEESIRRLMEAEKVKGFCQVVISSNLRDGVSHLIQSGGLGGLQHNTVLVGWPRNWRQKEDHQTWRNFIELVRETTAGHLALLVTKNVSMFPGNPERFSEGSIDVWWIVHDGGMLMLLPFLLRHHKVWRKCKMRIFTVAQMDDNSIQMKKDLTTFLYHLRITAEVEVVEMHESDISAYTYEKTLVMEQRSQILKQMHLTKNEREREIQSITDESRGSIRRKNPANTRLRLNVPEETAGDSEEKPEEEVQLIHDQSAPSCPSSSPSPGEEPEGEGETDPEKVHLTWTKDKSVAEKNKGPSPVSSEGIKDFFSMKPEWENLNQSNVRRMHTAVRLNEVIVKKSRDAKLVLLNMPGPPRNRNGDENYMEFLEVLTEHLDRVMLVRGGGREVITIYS
Assay: Tl influx FLIPR assay in HEK-293 cells expressing KCC2
Format: cell-based

In the case of OV350 [compound 350], the EC50 is reported as 261 ± 22.2 nM.
